According to ChEMBL document CHEMBL3045776, “[1,2,4]Triazolo[4,3-a]quinoxaline: synthesis, antiviral, and antimicrobial activities” (Med Chem Res, 2012):
≈ marks a conversion by molar mass, not a printed value.

Key:
[1] = Cytotoxicity against Chlorocebus aethiops (African green monkey) Vero cells; format: cell-based; settings: chlorocebus sabaeus, read-out: CD50 (the source's name)
Human alphaherpesvirus 1 [2] = test: Antiviral activity against Human herpesvirus 1 infected African green monkey Vero cells assessed as reduction of virus induced plaque formation after 66 hr; format: functional; settings: Human alphaherpesvirus 1, 66 h
Human alphaherpesvirus 1 [3] = test: Antiviral activity against Human herpesvirus 1 infected African green monkey Vero cells assessed as reduction of virus induced plaque formation at […] after 66 hr; format: functional; parameters: scale not given: the % may be the effect or the level left
Candida albicans [4] = test: Antifungal activity against Candida albicans at 500 ug/disk after 72 hr by disk diffusion method; format: functional; settings: read-out: IZ
Escherichia coli [5] = test: Antibacterial activity against Escherichia coli at 500 ug/disk after 24 hr by disk diffusion method; format: functional; settings: read-out: IZ
Staphylococcus aureus [6] = test: Antibacterial activity against Staphylococcus aureus after 24 hr by agar dilution method; format: functional
Staphylococcus aureus [7] = test: Antibacterial activity against Staphylococcus aureus at 500 ug/disk after 24 hr by disk diffusion method; format: functional; settings: read-out: IZ
Escherichia coli [8] = test: Antibacterial activity against Escherichia coli after 24 hr by agar dilution method; format: functional
Bacillus subtilis [9] = test: Antibacterial activity against Bacillus subtilis at 500 ug/disk after 24 hr by disk diffusion method; format: functional; settings: read-out: IZ
Candida albicans [10] = test: Antifungal activity against Candida albicans after 48 hr by agar dilution method; format: functional
Bacillus subtilis [11] = test: Antibacterial activity against Bacillus subtilis after 24 hr by agar dilution method; format: functional
Escherichia coli [12] = test: Antibacterial activity against Escherichia coli at 50 ug/ml after 24 hr by disk diffusion method; settings: read-out: IZ
Staphylococcus aureus [13] = test: Antibacterial activity against Staphylococcus aureus at 50 ug/ml after 24 hr by disk diffusion method; settings: read-out: IZ
Bacillus subtilis [14] = test: Antibacterial activity against Bacillus subtilis at 50 ug/ml after 24 hr by disk diffusion method; settings: read-out: IZ
Candida albicans [15] = test: Antifungal activity against Candida albicans at 1000 ug/ml after 72 hr by disk diffusion method; format: functional; settings: read-out: IZ

Row | Structure (SMILES) | CC50 [1] [µg/mL] | MIC (Human alphaherpesvirus 1 [2]) [µg/mL] | Activity (Human alphaherpesvirus 1 [3]) [%] | zone of inhibition at 500 µg/disc (Escherichia coli [5]) [mm] | zone of inhibition at 500 µg/disc (Staphylococcus aureus [7]) [mm] | MIC (Escherichia coli [8]) [µg/mL] | also measured
1 | CC(=O)Nc1nnc2c(N3CCN(c4ccccc4C)CC3)nc3ccc(C)cc3n12 | > 200 | – | – | – | – | – | –
2 | Cc1ccc2nc(N3CCN(c4ccccc4C)CC3)c3nnc(NC(=O)c4ccccc4)n3c2c1 | 160 (≈ 335 µM) | 80 (≈ 168 µM) | <25 | – | – | – | –
3 | Cc1ccc2nc(N3CCCCC3)c3nnc(NC(=O)c4ccccc4)n3c2c1 | 160 (≈ 414 µM) | 80 (≈ 207 µM) | <25 | 10 | 20 | – | zone of inhibition at 500 µg/disc (Candida albicans [4]): 10 mm; MIC (Staphylococcus aureus [6]): 84 µg/mL (≈ 217 µM)
4 | CC(=O)c1ccc(Nc2nc3ccc(C)cc3n3c(NC(=O)c4ccccc4)nnc23)cc1 | – | – | – | 15 | 15 | 67 (≈ 154 µM) | MIC (Staphylococcus aureus [6]): 94 µg/mL (≈ 215 µM); zone of inhibition at 500 µg/disc (Bacillus subtilis [9]): 10 mm
5 | Cc1ccc2nc(Sc3nnc(-c4ccccc4O)o3)c3nnc(N)n3c2c1 | 160 (≈ 409 µM) | 80 (≈ 204 µM) | <25 | – | – | – | –
6 | Cc1ccc2nc(Sc3nnc(-c4cccnc4)o3)c3nnc(N)n3c2c1 | 160 (≈ 425 µM) | 80 (≈ 213 µM) | <25 | 10 | – | – | –
7 | Cc1ccc2nc(Sc3nnc(-c4cccs4)n3-c3ccccc3)c3nnc(N)n3c2c1 | 160 (≈ 350 µM) | 80 (≈ 175 µM) | <25 | 20 | 15 | 98 (≈ 215 µM) | MIC (Candida albicans [10]): 78 µg/mL (≈ 171 µM); zone of inhibition at 500 µg/disc (Candida albicans [4]): 20 mm; MIC (Staphylococcus aureus [6]): 124 µg/mL (≈ 272 µM); MIC (Bacillus subtilis [11]): 91 µg/mL (≈ 199 µM); zone of inhibition at 500 µg/disc (Bacillus subtilis [9]): 15 mm
8 | COc1ccc(/C=N/c2n[nH]c(Sc3nc4ccc(C)cc4n4c(N)nnc34)n2)cc1OC | – | – | – | 15 | 10 | 102 (≈ 221 µM) | MIC (Candida albicans [10]): 112 µg/mL (≈ 243 µM); zone of inhibition at 500 µg/disc (Candida albicans [4]): 20 mm; zone of inhibition at 500 µg/disc (Bacillus subtilis [9]): 10 mm
9 | CCNC(=S)Nc1nnc2c(Cl)nc3ccc(C)cc3n12 | 160 (≈ 499 µM) | 80 (≈ 249 µM) | <25 | 15 | 15 | 87 (≈ 271 µM) | MIC (Candida albicans [10]): 89 µg/mL (≈ 277 µM); zone of inhibition at 500 µg/disc (Candida albicans [4]): 20 mm; MIC (Staphylococcus aureus [6]): 115 µg/mL (≈ 358 µM); zone of inhibition at 500 µg/disc (Bacillus subtilis [9]): 10 mm
10 | Cc1ccc2nc(Cl)c3nnc(NC(=S)Nc4ccccc4)n3c2c1 | 200 (≈ 542 µM) | 20 (≈ 54.2 µM) | 25 | – | – | – | –
11 | Cc1ccc2nc(Cl)c3nnc(/N=C/c4ccc(O)cc4)n3c2c1 | 160 (≈ 474 µM) | 80 (≈ 237 µM) | <25 | – | – | – | –
12 | COc1ccc(/C=N/c2nnc3c(Cl)nc4ccc(C)cc4n23)cc1OC | 160 (≈ 419 µM) | 80 (≈ 210 µM) | <25 | – | – | – | –
13 | COC(=O)c1cc(=O)n2nc3c(Cl)nc4ccc(C)cc4n3c2n1 | 160 (≈ 465 µM) | 80 (≈ 233 µM) | <25 | – | – | – | –
14 | CCOC(=O)c1cnc2n(nc3c(Cl)nc4ccc(C)cc4n32)c1=O | – | – | – | – | 10 | – | –
15 | Cc1ccc2nc(N3CCN(c4ccccc4C)CC3)c3nnc(N)n3c2c1 | – | – | – | 10 | – | 85 (≈ 228 µM) | zone of inhibition at 500 µg/disc (Candida albicans [4]): 10 mm; zone of inhibition at 500 µg/disc (Bacillus subtilis [9]): 10 mm
16 | C[C@@]1(CO)[C@H](O)CC[C@@]2(C)[C@H]1CC[C@H]1C[C@@H]3C[C@@]12CC[C@]3(O)CO [APHIDICOLIN] | 20 (≈ 59.1 µM) | 5 (≈ 14.8 µM) | 100 | – | – | – | –
17 | O=C(O)c1cn(C2CC2)c2cc(N3CCNCC3)c(F)cc2c1=O [CIPROFLOXACIN] | – | – | – | – | – | 57 (≈ 172 µM) | zone of inhibition at 50 µg/mL (Escherichia coli [12]): > 20 mm; MIC (Staphylococcus aureus [6]): 76 µg/mL (≈ 229 µM); zone of inhibition at 50 µg/mL (Staphylococcus aureus [13]): > 20 mm; MIC (Bacillus subtilis [11]): 62 µg/mL (≈ 187 µM); zone of inhibition at 50 µg/mL (Bacillus subtilis [14]): 15 mm
18 | Clc1ccccc1C(c1ccccc1)(c1ccccc1)n1ccnc1 [CLOTRIMAZOLE] | – | – | – | – | – | – | MIC (Candida albicans [10]): 48 µg/mL (≈ 139 µM); zone of inhibition at 1000 µg/mL (Candida albicans [15]): > 20 mm
